Source: EP4800015A1, “AZABICYCLO DERIVATIVE AND PREPARATION METHOD THEREFOR, AND USE” (Zhejiang Hisun Pharmaceutical Co., Ltd., priority 2023, dated 2025)

Experiments:
SW48 cells = experiment: Inhibition of SW48 cell proliferation (CellTiter-Glo); format: cell-based; conditions: Homo sapiens; SW48 cells (MSI-H), 120 hours
Outline: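 SW48 (MSI-H) cells in L-15 with 10% FBS were seeded at 500 per well, cultured overnight at 37 °C, then exposed to compound at final concentrations of 10000 nM to 1.52 nM for 120 h. Viability was read by CellTiter-Glo luminescence, with inhibition relative to 0.1% DMSO. IC50 from nonlinear regression of log concentration versus inhibition.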

recombinant human WRN = target: T1, recombinant human WRN (Homo sapiens, UniProt Q14191); experiment: Inhibition of WRN enzyme activity (ATPase), ADP-Glo Kinase Assay; format: biochemical; conditions: WRN protein 5 nM, Flap 0.1 nM, ATP 30 µM; read-out: IC50
T1 construct: purchased BPS 101264
Outline: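 Recombinant human WRN (5 nM) was preincubated with compound (1000–0.004 nM) for 15 min at room temperature. Flap26 5'-flap DNA (0.1 nM) and 30 µM ATP were then added for 10 min in Tris pH 7.5, MgCl2, NaCl, BSA, Pluronic buffer. ADP was detected by ADP-Glo luminescence, and IC50 was obtained by nonlinear regression versus a 0.1% DMSO control.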

RL95-2 cells = experiment: Inhibition of RL95-2 cell proliferation (CellTiter-Glo); format: cell-based; conditions: Homo sapiens; RL95-2 cells (MSI-H), 120 hours
Outline: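 RL95-2 (MSI-H) cells, 500/well in DMEM/F12 with 10% FBS, adhered overnight, then treated 120 h at 37 °C, 5% CO2 with compound at final 1.52-10000 nM. Viability by CellTiter-Glo luminescence. Inhibition relative to 0.1% DMSO control; IC50 from nonlinear regression of log concentration versus inhibition.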

Measured: IC50

T1 sequence (Q14191 whole entry): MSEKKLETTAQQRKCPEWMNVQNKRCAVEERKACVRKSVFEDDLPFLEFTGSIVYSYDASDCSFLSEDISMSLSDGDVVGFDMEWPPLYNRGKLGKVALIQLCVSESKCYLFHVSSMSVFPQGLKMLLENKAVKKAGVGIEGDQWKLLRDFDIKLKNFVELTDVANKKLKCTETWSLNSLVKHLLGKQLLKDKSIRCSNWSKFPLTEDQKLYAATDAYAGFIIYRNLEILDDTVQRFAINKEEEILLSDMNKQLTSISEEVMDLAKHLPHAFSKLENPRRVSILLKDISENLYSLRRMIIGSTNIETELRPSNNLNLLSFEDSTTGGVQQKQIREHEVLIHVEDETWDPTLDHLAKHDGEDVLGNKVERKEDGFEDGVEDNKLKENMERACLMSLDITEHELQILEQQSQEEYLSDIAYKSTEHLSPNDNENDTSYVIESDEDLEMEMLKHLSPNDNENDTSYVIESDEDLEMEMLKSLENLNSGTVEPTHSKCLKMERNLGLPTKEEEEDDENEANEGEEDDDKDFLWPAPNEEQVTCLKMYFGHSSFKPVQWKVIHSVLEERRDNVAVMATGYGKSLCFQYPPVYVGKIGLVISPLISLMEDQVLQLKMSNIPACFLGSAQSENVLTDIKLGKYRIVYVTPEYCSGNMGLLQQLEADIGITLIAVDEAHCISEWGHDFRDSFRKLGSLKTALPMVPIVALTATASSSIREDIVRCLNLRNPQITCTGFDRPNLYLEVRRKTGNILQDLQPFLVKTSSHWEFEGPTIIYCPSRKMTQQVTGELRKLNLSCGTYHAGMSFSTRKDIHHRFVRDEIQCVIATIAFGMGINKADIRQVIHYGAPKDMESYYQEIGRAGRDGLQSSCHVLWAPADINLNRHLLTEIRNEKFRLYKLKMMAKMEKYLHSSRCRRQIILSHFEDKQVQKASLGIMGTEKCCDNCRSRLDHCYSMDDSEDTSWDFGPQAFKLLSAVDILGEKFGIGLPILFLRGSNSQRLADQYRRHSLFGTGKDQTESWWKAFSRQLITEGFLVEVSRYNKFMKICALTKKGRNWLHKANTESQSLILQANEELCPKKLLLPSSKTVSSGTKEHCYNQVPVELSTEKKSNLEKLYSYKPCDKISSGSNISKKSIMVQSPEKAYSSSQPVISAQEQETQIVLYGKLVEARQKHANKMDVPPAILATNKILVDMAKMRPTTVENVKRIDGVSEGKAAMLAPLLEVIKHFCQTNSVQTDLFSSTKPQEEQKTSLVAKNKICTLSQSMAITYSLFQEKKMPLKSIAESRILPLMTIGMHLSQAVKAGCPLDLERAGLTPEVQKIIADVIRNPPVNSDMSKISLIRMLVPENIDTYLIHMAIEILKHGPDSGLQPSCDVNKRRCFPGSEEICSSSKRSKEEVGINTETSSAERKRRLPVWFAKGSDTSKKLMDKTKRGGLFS

CCc1c(N2CCN(C(=O)c3ncnc(C)c3O)CC2)c(=O)n2nc(-c3cc4ccncc4s3)nc2n1CC(=O)Nc1ccc(C(F)(F)F)cc1Cl [Example 132, N-(2-chloro-4-(trifluoromethyl)phenyl)-2-(5-ethyl-6-(4-(5-hydroxy-6-methylpyrimidine-4-carbonyl)piperazin-1-yl)-7-oxo-2-(thieno[2,3-c]pyridin-2-yl)-[1,2,4]triazolo[1,5-a]pyrimidin-4(7H)-yl)a cetamide]
0.001 to 0.1 µM: all assays above

CCc1c(N2CCN(C(=O)c3ncnc(C)c3O)CC2)c(=O)n2nc(-c3nc4ccccc4s3)nc2n1CC(=O)Nc1ccc(C(F)(F)F)cc1Cl [Example 133, 2-(2-(benzo[d]thiazol-2-yl)-5-ethyl-6-(4-(5-hydroxy-6-methylpyrimidine-4-carbonyl)piperazin-1-yl)-7-oxo-[1,2,4]triazolo[1,5-a]pyrimidin-4(7H)-yl)-N-(2-chloro-4-(trifluoromethyl)phenyl)acetamide]
0.001 to 0.1 µM: all assays above

CCc1c(N2CCN(C(=O)c3ncnc(C)c3O)CC2)c(=O)n2nc(-c3cc4c(s3)CCNC4)nc2n1CC(=O)Nc1ccc(C(F)(F)F)cc1Cl [Example 134, N-(2-chloro-4-(trifluoromethyl)phenyl)-2-(5-ethyl-6-(4-(5-hydroxy-6-methylpyrimidine-4-carbonyl)piperazin-1-yl)-7-oxo-2-(4,5,6,7-tetrahydrothieno[3,2-c]pyridin-2-yl)-[1,2,4]triazolo[1,5-a]pyrimidin-4(7H)-yl)acetamide]
0.001 to 0.1 µM: all assays above

CCc1c(N2CCN(C(=O)c3ncnc(C)c3O)CC2)c(=O)n2nc(-c3ccc4nc(N)oc4c3)nc2n1CC(=O)Nc1ccc(C(F)(F)F)cc1Cl [Example 140, 2-(2-(2-aminobenzo[d]oxazol-6-yl)-5-ethyl-6-(4-(5-hydroxy-6-methylpyrimidine-4-carbonyl)piperazin-1-yl)-7-oxo-[1,2,4]triazolo[1,5-a]pyrimidin-4(7H)-yl)-N-(2-chloro-4-(trifluoromethyl)phenyl)acetamide]
0.001 to 0.1 µM: all assays above

CCc1c(N2CCN(C(=O)c3ncnc(C)c3O)CC2)c(=O)n2nc(-c3ccc4c(c3)CNCCO4)nc2n1CC(=O)Nc1ccc(C(F)(F)F)cc1Cl [Example 142, N-(2-chloro-4-(trifluoromethyl)phenyl)-2-(5-ethyl-6-(4-(5-hydroxy-6-methylpyrimidine-4-carbonyl)piperazin-1-yl)-7-oxo-2-(2,3,4,5-tetrahydrobenzo[f][1,4]oxazepin-7-yl)-[1,2,4]triazolo[1,5-a]pyrimidin-4(7H)-yl)acetamide]
0.001 to 0.1 µM: all assays above

[2H]C([2H])([2H])Sc1ccc(NC(=O)Cn2c(CC)c(N3CCN(C(=O)c4ncnc(C)c4O)CC3)c(=O)n3nc(-c4ccc5c(c4)CCO5)nc23)c(Cl)c1 [Example 147, N-(2-chloro-4-((methyl-d3)thio)phenyl)-2-(2-(2,3-dihydrobenzofuran-5-yl)-5-ethyl-6-(4-(5-hydroxy-6-methylpyrimidine-4-carbonyl)piperazin-1-yl)-7-oxo-[1,2,4]triazolo[1,5-a]pyrimidin-4(7H)-yl)acetamide]
0.001 to 0.1 µM: all assays above

CCc1c(C2=CCN(C(=O)c3ncnc(C)c3O)CC2)c(=O)n2nc(-c3ccc4c(c3)CCO4)nc2n1CC(=O)Nc1ccc(C(F)(F)F)cc1Cl [Example 149, N-(2-chloro-4-(trifluoromethyl)phenyl)-2-(2-(2,3-dihydrobenzofuran-5-yl)-5-ethyl-6-(1-(5-hydroxy-6-methylpyrimidine-4-carbonyl)-1,2,3,6-tetrahydropyridin-4-yl)-7-oxo-[1,2,4]triazolo[1,5-a]pyrimidin-4(7H)-yl)acetamide]
0.001 to 0.1 µM: all assays above

CCc1c(N2CCN(C(=O)c3nc(C)ncc3O)CC2)c(=O)n2nc(-c3ccc4c(c3)CCO4)nc2n1CC(=O)Nc1ccc(C(F)(F)F)cc1Cl [Example 150, N-(2-chloro-4-(trifluoromethyl)phenyl)-2-(2-(2,3-dihydrobenzofuran-5-yl)-5-ethyl-6-(4-(5-hydroxy-2-methylpyrimidine-4-carbonyl)piperazin-1-yl)-7-oxo-[1,2,4]triazolo[1,5-a]pyrimidin-4(7H)-yl)acetamide]
0.001 to 0.1 µM: all assays above

CCc1c(N2CCN(C(=O)c3ncnc(C)c3O)CC2)c(=O)n2nc(-c3cc4cnccc4s3)nc2n1CC(=O)Nc1ccc(C(F)(F)F)cc1Cl [Example 153, N-(2-chloro-4-(trifluoromethyl)phenyl)-2-(5-ethyl-6-(4-(5-hydroxy-6-methylpyrimidine-4-carbonyl)piperazin-1-yl)-7-oxo-2-(thieno[3,2-c]pyridin-2-yl)-[1,2,4]triazolo[1,5-a]pyrimidin-4(7H)-yl)a cetamide]
0.001 to 0.1 µM: all assays above

CCc1c(N2CCN(C(=O)c3ncnc(C)c3O)CC2)c(=O)n2nc(-c3cccc4c3OCC4)nc2n1CC(=O)Nc1ccc(C(F)(F)F)cc1Cl [Example 154, N-(2-chloro-4-(trifluoromethyl)phenyl)-2-(2-(2,3-dihydrobenzofuran-7-yl)-5-ethyl-6-(4-(5-hydroxy-6-methylpyrimidine-4-carbonyl)piperazin-1-yl)-7-oxo-[1,2,4]triazolo[1,5-a]pyrimidin-4(7H)-yl)acetamide]
0.001 to 0.1 µM: all assays above

CCc1c(N2CCN(C(=O)c3ncnc(C)c3O)CC2)c(=O)n2nc(-c3ccc4cn[nH]c4c3)nc2n1CC(=O)Nc1ccc(C(F)(F)F)cc1Cl [Example 156, N-(2-chloro-4-(trifluoromethyl)phenyl)-2-(5-ethyl-6-(4-(5-hydroxy-6-methylpyrimidine-4-carbonyl)piperazin-1-yl)-2-(1H-indazol-6-yl)-7-oxo-[1,2,4]triazolo[1,5-a]pyrimidin-4(7H)-yl)acetamide]
0.001 to 0.1 µM: all assays above

CCc1c(N2CCN(C(=O)c3ncnc(C)c3O)CC2)c(=O)n2nc(-c3ccc4c(c3)NCCO4)nc2n1CC(=O)Nc1ccc(C(F)(F)F)cc1Cl [Example 157, N-(2-chloro-4-(trifluoromethyl)phenyl)-2-(2-(3,4-dihydro-2H-benzo[b][1,4]oxazin-6-yl)-5-ethyl-6-(4-(5-hydroxy-6-methylpyrimidine-4-carbonyl)piperazin-1-yl)-7-oxo-[1,2,4]triazolo[1,5-a]pyrimidin-4(7H)-yl)acetamide]
0.001 to 0.1 µM: all assays above

CCc1c(N2CCN(C(=O)c3ncnc(C)c3O)CC2)c(=O)n2nc(C3=CCCCOC3)nc2n1CC(=O)Nc1ccc(S(F)(F)(F)(F)F)cc1C [Example 158, 2-(5-ethyl-6-(4-(5-hydroxy-6-methylpyrimidine-4-carbonyl)piperazin-1-yl)-7-oxo-2-(2,5,6,7-tetra hydrooxepin-3-yl)-[1,2,4]triazolo[1,5-a]pyrimidin-4(7H)-yl)-N-(2-methyl-4-(pentafluoro-λ^6-sulfaneyl)phenyl)acetamide]
0.001 to 0.1 µM: all assays above
